Results from patent US12012391B1, “9-(2-hydroxyquinoline-3-yl)-10-[3-(dimethylamino)propyl]-3,4,6,7,9,10-hexahydroacridine-1,8(2H,5H)-dione as an antimicrobial compound” (KING FAISAL UNIVERSITY, priority 2023, dated 2024).

How the values were obtained:
Settings in all cases: after 10, 20, 40 and 60 minutes at all dilutions 1:100 to 1:800
[1] = tested on: E. Coli; assay: Antimicrobial activity by agar dilution, E. Coli; type: cell-based, Escherichia coli
Procedure: (§1) The antimicrobial properties of the synthesized compound 9-(2-hydroxyquinoline-3-yl)-10-[3-(dimethylamino)propyl]-3,4,6,7,9,10-hexahydroacridine-1,8(2H,5H)-dione were studied by the method of agar dilution. Test solutions of each compound were prepared in a concentration of 1% using dimethylformamide as a solvent. Then they were diluted in a physiological solution to obtain the final experimental dilutions 1:100, 1:200, 1:400, and 1:800. The effect of these substances were compared with furacillin in a controllable study. The testing microbes used were gram positive bacteria St. aereus, gram negative bacteria E. Coli and Ps. aeruginosa, and Candida albicans fungi. The experiments used for this survey were meat-pentonlu agar (EPA) for cultivation of bacteria and Saburo environment for fungi. Each experiment used 1 ml of test solution on each plate 500 min. Add 2 drops of emulsified with microbes feel. All experimental samples were taken from the agar after 10, 20, 40, 60 minutes in the environment on the basis of Patrk planted. Bacteria were cultivated at a temperature of 37° C. for 1 day and the mushroom was kept in a thermostat for […] at a temperature of 28° C. Then the results were checked.

[2] = tested on: Candida albicans; assay: Antimicrobial activity by agar dilution, Candida albicans; type: cell-based
Procedure: as §1

[3] = tested on: Ps. aeruginosa; assay: Antimicrobial activity by agar dilution, Ps. aeruginosa; type: cell-based, Pseudomonas aeruginosa
Procedure: as §1

[4] = tested on: St. aereus; assay: Antimicrobial activity by agar dilution, St. aereus; type: cell-based, Staphylococcus aureus
Procedure: as §1

Measured: inhibition activity

CN(C)CCCN1C2=C(C(=O)CCC2)C(c2cc3ccccc3nc2O)C2=C1CCCC2=O [9-(2-hydroxyquinoline-3-yl)-10-[3-(dimethylamino)propyl]-3,4,6,7,9,10-hexahydroacridine-1,8(2H,5H)-dione]
highest inhibition activity: [1] | [2] | [3] | [4]
